These results are taken from patent publication US9376425B2, “Heterocyclic compounds as MDM2 inhibitors for the treatment of cancer” (AMGEN INC., priority 2011, dated 2016).

pIC50: −log10 of the molar value.

T1 sequence (Q00987 1-188): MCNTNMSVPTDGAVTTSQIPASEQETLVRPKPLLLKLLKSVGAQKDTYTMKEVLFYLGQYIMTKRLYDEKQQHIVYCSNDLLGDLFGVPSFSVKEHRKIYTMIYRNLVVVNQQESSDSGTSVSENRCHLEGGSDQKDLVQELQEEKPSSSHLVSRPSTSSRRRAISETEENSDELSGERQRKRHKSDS

The assay concerns the target T1, human MDM2 (GST-hMDM2 1-188), interaction with biotinylated-p53 (1-83) (Homo sapiens, UniProt Q00987).
T1 construct: Amino acid residues 1-188 of human MDM2 were expressed; made in house; host or cells: Escherichia coli
The assay can be described thus: improved HTRF assay (HTRF2 assay), inhibition of HDM2-p53 interaction. The assay is classed as binding. The conditions noted are these: 0.2 nM GST-hMDM2, 0.5 nM biotinylated-p53, 100 mM KF. The protocol:
Residues 1-83 of human p53 were expressed as an amino-terminal AviTag™-TrxA-6xHis fusion protein (biotinylated p53) in E. coli. Each protein was purified from cell paste by affinity chromatography.
Specifically, 10 uL of GST-hMDM2 was incubated with 10 ul of diluted compound (various concentrations, serially diluted) in 10% DMSO for 20 minutes at room temperature. 20 uL of biotinylated-p53 was added to the GST-hMDM2+ compound mixture, and then incubated at room temperature for 60 min. 10 uL of detection buffer consisting of SA-XLent, anti-GST cryptate antibody and KF was added to GST-hMDM2, biotinylated-p53 and compound reaction and left at room temperature to reach equilibrium for >4 hrs. The final concentration of DMSO in the reaction was 2%. Time-resolved fluorescence readings were measured on a microplate multilabel reader. Percentage of inhibition was calculated relative to nutlin-3.
(Time-resolved FRET reads energy transfer from a long-lived donor to a nearby acceptor.)
By pIC50 is commonly meant the IC50 on a negative log10 scale, so that one unit is a factor of ten. Read a low pIC50 as a large IC50. In turn, `O=C(O)C[C@H]1O[C@H](c2cccc(Cl)c2)[C@@H](c2ccc(Cl)cc2)N([C@H](CN(c2ccccc2F)S(=O)(=O)C2CC2)C2CC2)C1=O` (single isomer, unassigned) [Example 159, 2-((2R,5R,6R)-6-(3-chlorophenyl)-5-(4-chlorophenyl)-4-((S)-1-cyclopropyl-2-(N-(2-fluorophenyl)cyclopropanesulfonamido)ethyl)-3-oxomorpholin-2-yl)acetic acid or 2-((2S,5R,6R)-6-(3-chlorophenyl)-5-(4-chlorophenyl)-4-((S)-1-cyclopropyl-2-(N-(2-fluorophenyl)cyclopropanesulfonamido)ethyl)-3-oxomorpholin-2-yl)acetic acid] had a pIC50 of over 9.00.
For `CC[C@@H](CS(=O)(=O)C(C)(C)C)N1C(=O)[C@@H](CC(=O)O)O[C@H](c2cccc(Cl)c2)[C@@]1(C)c1ccc(Cl)cc1` (single isomer, unassigned) [Example 162, 2-((2R,5R,6R)-4-((S)-1-(tert-butylsulfonyl)butan-2-yl)-6-(3-chlorophenyl)-5-(4-chlorophenyl)-5-methyl-3-oxomorpholin-2-yl)acetic acid or 2-((2S,5R,6R)-4-((S)-1-(tert-butylsulfonyl)butan-2-yl)-6-(3-chlorophenyl)-5-(4-chlorophenyl)-5-methyl-3-oxomorpholin-2-yl)acetic acid] the value was 5.20; for `CC[C@@H](CS(=O)(=O)C(C)(C)C)N1C(=O)[C@@H](CC(=O)O)O[C@H](c2cccc(Cl)c2)[C@@]1(C)c1ccc(Cl)cc1` (single isomer, unassigned) [Example 163, 2-((2R,5R,6R)-4-((S)-1-(tert-butylsulfonyl)butan-2-yl)-6-(3-chlorophenyl)-5-(4-chlorophenyl)-5-methyl-3-oxomorpholin-2-yl)acetic acid or 2-((2S,5R,6R)-4-((S)-1-(tert-butylsulfonyl)butan-2-yl)-6-(3-chlorophenyl)-5-(4-chlorophenyl)-5-methyl-3-oxomorpholin-2-yl)acetic acid], 5.18; for `CC[C@@H](CN(c1ccccc1F)S(=O)(=O)C1(C)CC1)N1C(=O)[C@@H](CC(=O)O)O[C@H](c2cccc(Cl)c2)[C@H]1c1ccc(Cl)cc1` (single isomer, unassigned) [Example 174, 2-((2R,5R,6R)-6-(3-chlorophenyl)-5-(4-chlorophenyl)-4-((S)-1-(N-(2-fluorophenyl)-1-methylcyclopropanesulfonamido)butan-2-yl)-3-oxomorpholin-2-yl)acetic acid or 2-((2S,5R,6R)-6-(3-chlorophenyl)-5-(4-chlorophenyl)-4-((S)-1-(N-(2-fluorophenyl)-1-methylcyclopropanesulfonamido)butan-2-yl)-3-oxomorpholin-2-yl)acetic acid], over 9.00.
In the case of `CC[C@@H](CN(c1ccccc1F)S(=O)(=O)C1(C)CC1)N1C(=O)[C@@H](CC(=O)O)O[C@H](c2cccc(Cl)c2)[C@H]1c1ccc(Cl)cc1` (single isomer, unassigned) [Example 175, 2-((2R,5R,6R)-6-(3-chlorophenyl)-5-(4-chlorophenyl)-4-((S)-1-(N-(2-fluorophenyl)-1-methylcyclopropanesulfonamido)butan-2-yl)-3-oxomorpholin-2-yl)acetic acid or 2-((2S,5R,6R)-6-(3-chlorophenyl)-5-(4-chlorophenyl)-4-((S)-1-(N-(2-fluorophenyl)-1-methylcyclopropanesulfonamido)butan-2-yl)-3-oxomorpholin-2-yl)acetic acid] it was over 9.00.
For `CC[C@@H](CN(c1ncccc1F)S(=O)(=O)C1CC1)N1C(=O)[C@@H](CC(=O)O)O[C@H](c2cccc(Cl)c2)[C@H]1c1ccc(Cl)cc1` (single isomer, unassigned) [Example 176, 2-((2R,5R,6R)-6-(3-chlorophenyl)-5-(4-chlorophenyl)-4-((S)-1-(N-(3-fluoropyridin-2-yl)cyclopropanesulfonamido)butan-2-yl)-3-oxomorpholin-2-yl)acetic acid or 2-((2S,5R,6R)-6-(3-chlorophenyl)-5-(4-chlorophenyl)-4-((S)-1-(N-(3-fluoropyridin-2-yl)cyclopropanesulfonamido)butan-2-yl)-3-oxomorpholin-2-yl)acetic acid] the value was over 9.00.
For the compound `CC[C@@H](CN(c1ncccc1F)S(=O)(=O)C1CC1)N1C(=O)[C@@H](CC(=O)O)O[C@H](c2cccc(Cl)c2)[C@H]1c1ccc(Cl)cc1` (single isomer, unassigned) [Example 177, 2-((2R,5R,6R)-6-(3-chlorophenyl)-5-(4-chlorophenyl)-4-((S)-1-(N-(3-fluoropyridin-2-yl)cyclopropanesulfonamido)butan-2-yl)-3-oxomorpholin-2-yl)acetic acid or 2-((2S,5R,6R)-6-(3-chlorophenyl)-5-(4-chlorophenyl)-4-((S)-1-(N-(3-fluoropyridin-2-yl)cyclopropanesulfonamido)butan-2-yl)-3-oxomorpholin-2-yl)acetic acid], the pIC50 was over 9.00.
For `C=CC[C@@H]1O[C@H](c2cccc(Cl)c2)[C@@H](c2ccc(Cl)cc2)N([C@@H](CC)CN(c2ccccn2)S(=O)(=O)C2CC2)C1=O` (single isomer, unassigned) [Example 178, N-((S)-2-((2S,5R,6R)-2-allyl-6-(3-chlorophenyl)-5-(4-chlorophenyl)-3-oxomorpholino)butyl)-N-(pyridin-2-yl)cyclopropanesulfonamide or N-((S)-2-((2R,5R,6R)-2-allyl-6-(3-chlorophenyl)-5-(4-chlorophenyl)-3-oxomorpholino)butyl)-N-(pyridin-2-yl)cyclopropanesulfonamide] the value was 6.74; for `C=CC[C@@H]1O[C@H](c2cccc(Cl)c2)[C@@H](c2ccc(Cl)cc2)N([C@@H](CC)CN(c2ccccn2)S(=O)(=O)C2CC2)C1=O` (single isomer, unassigned) [Example 179, N-((S)-2-((2S,5R,6R)-2-allyl-6-(3-chlorophenyl)-5-(4-chlorophenyl)-3-oxomorpholino)butyl)-N-(pyridin-2-yl)cyclopropanesulfonamide or N-((S)-2-((2R,5R,6R)-2-allyl-6-(3-chlorophenyl)-5-(4-chlorophenyl)-3-oxomorpholino)butyl)-N-(pyridin-2-yl)cyclopropanesulfonamide], 6.85.
Consider `CC[C@@H](CN(c1ccccn1)S(=O)(=O)C1CC1)N1C(=O)[C@H](CC(=O)O)O[C@H](c2cccc(Cl)c2)[C@H]1c1ccc(Cl)cc1` (single isomer, unassigned) [Example 180, 2-((2S,5R,6R)-6-(3-chlorophenyl)-5-(4-chlorophenyl)-3-oxo-4-((S)-1-(N-(pyridin-2-yl)cyclopropanesulfonamido)butan-2-yl)morpholin-2-yl)acetic acid or 2-((2R,5R,6R)-6-(3-chlorophenyl)-5-(4-chlorophenyl)-3-oxo-4-((S)-1-(N-(pyridin-2-yl)cyclopropanesulfonamido)butan-2-yl)morpholin-2-yl)acetic acid], for which the pIC50 is over 9.00.
